From ChEMBL document CHEMBL1201862, “PubChem BioAssay data set” (2004)
Counter-ions that a name gives are not always drawn.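 Cells were grown in 96-well plates and exposed to each compound for 48 hours at five concentrations; endpoints were interpolated linearly between bracketing concentrations, or set to the highest concentration if not reached. The concentration for 50% growth inhibition is given as GI50.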 Active and inactive are the calls of the source. No stated cut-off is given here; in the data, active = GI50 up to about 1.1 µM and inactive = higher.

Legend:
Experiment in all cases: inhibition of tumour cell growth, NCI panel, 48 h
A498 = tested on: A498
MCF7 = tested on: MCF7
OVCAR-4 = tested on: OVCAR-4
PC-3 = tested on: PC-3
HCT-15 = tested on: HCT-15
SN12C = tested on: SN12C
NCI-H226 = tested on: NCI-H226
SNB-19 = tested on: SNB-19
CAKI-1 = tested on: CAKI-1
SNB-75 = tested on: SNB-75
LOX IMVI = tested on: LOX IMVI
MOLT-4 = tested on: MOLT-4
OVCAR-8 = tested on: OVCAR-8
BT-549 = tested on: BT-549
RPMI-8226 = tested on: RPMI-8226
MDA-MB-435 = tested on: MDA-MB-435
HL-60 = tested on: HL-60
MDA-N = tested on: MDA-N
RXF 393 = tested on: RXF 393
MDA-MB-231 = tested on: MDA-MB-231

| SMILES | GI50 (A498) | GI50 (MCF7) | GI50 (OVCAR-4) | GI50 (PC-3) | GI50 (HCT-15) [µM] | GI50 (SN12C) | GI50 (NCI-H226) | GI50 (SNB-19) | GI50 (CAKI-1) | GI50 (SNB-75) | GI50 (LOX IMVI) | GI50 (MOLT-4) | GI50 (OVCAR-8) | GI50 (BT-549) | GI50 (RPMI-8226) | GI50 (MDA-MB-435) | GI50 (HL-60) | GI50 (MDA-N) | GI50 (RXF 393) | GI50 (MDA-MB-231) |
| --- | --- | --- | --- | --- | --- | --- | --- | --- | --- | --- | --- | --- | --- | --- | --- | --- | --- | --- | --- | --- |
| Cc1cc(C2(c3cc(C)c(O)c(C(=O)O)c3)OS(=O)(=O)c3ccccc32)cc(C(=O)O)c1O | > 100 µM (inactive) | > 100 µM (inactive) | > 100 µM (inactive) | > 100 µM (inactive) | > 100 | > 100 µM (inactive) | > 100 µM (inactive) | > 100 µM (inactive) | > 100 µM (inactive) | > 100 µM (inactive) | > 100 µM (inactive) | 0.205 µM (active) | > 100 µM (inactive) | > 100 µM (inactive) | > 100 µM (inactive) | > 100 µM (inactive) | > 100 µM (inactive) | > 100 µM (inactive) | > 100 µM (inactive) | > 100 µM (inactive) |
| CC1=CC(=O)/C(=C/Nc2nc(-c3ccc([N+](=O)[O-])cc3)cs2)C(=O)O1 | 80 µM (inactive) | > 100 µM (inactive) | > 100 µM (inactive) | 46.5 µM (inactive) | > 100 | > 100 µM (inactive) | > 100 µM (inactive) | 86.5 µM (inactive) | > 100 µM (inactive) | > 100 µM (inactive) | > 100 µM (inactive) | 61.4 µM (inactive) | > 100 µM (inactive) | > 100 µM (inactive) | > 100 µM (inactive) | > 100 µM (inactive) | 19.9 µM (inactive) | > 100 µM (inactive) | 27.7 µM (inactive) | > 100 µM (inactive) |
| CC(=O)/C=N/CC(=O)O | > 100 µM (inactive) | > 100 µM (inactive) | > 100 µM (inactive) | > 100 µM (inactive) | > 100 | > 100 µM (inactive) | > 100 µM (inactive) | > 100 µM (inactive) | > 100 µM (inactive) | > 100 µM (inactive) | > 100 µM (inactive) | > 100 µM (inactive) | > 100 µM (inactive) | > 100 µM (inactive) | > 100 µM (inactive) | > 100 µM (inactive) | > 100 µM (inactive) | > 100 µM (inactive) | > 100 µM (inactive) | > 100 µM (inactive) |
| Cc1ccc2c(=O)c3c(O)c4c(cc3n(C)c2c1)OC(C)(C)C=C4 | > 10 µM (inactive) | > 10 µM (inactive) | > 10 µM (inactive) | > 10 µM (inactive) | > 10 | > 10 µM (inactive) | > 10 µM (inactive) | > 10 µM (inactive) | > 10 µM (inactive) | > 10 µM (inactive) | > 10 µM (inactive) | > 10 µM (inactive) | > 10 µM (inactive) | > 10 µM (inactive) | > 10 µM (inactive) | > 10 µM (inactive) | > 10 µM (inactive) | > 10 µM (inactive) | > 10 µM (inactive) | > 10 µM (inactive) |
| COc1ccc(C(=O)c2ccc(-n3cc(/C=C/[N+](=O)[O-])c4ccccc43)cc2)cc1 | 22.4 µM (inactive) | 9.08 µM (inactive) | 29.4 µM (inactive) | 18.8 µM (inactive) | 7 | 16.8 µM (inactive) | > 51.5 µM (inactive) | 30.2 µM (inactive) | 19.1 µM (inactive) | 91 µM (inactive) | 6.55 µM (inactive) | 4.81 µM (inactive) | 20.3 µM (inactive) | 15.5 µM (inactive) | 3.08 µM (inactive) | 16.2 µM (inactive) | 13.7 µM (inactive) | 22.8 µM (inactive) | 5.45 µM (inactive) | 19.3 µM (inactive) |
| C=CCOc1ccc2c(C)cc(=O)oc2c1C | 31.5 µM (inactive) | 38.5 µM (inactive) | 96.4 µM (inactive) | 35.3 µM (inactive) | 42.8 | 98.4 µM (inactive) | > 100 µM (inactive) | 61.4 µM (inactive) | 24.1 µM (inactive) | 52.6 µM (inactive) | 43.8 µM (inactive) | 35.1 µM (inactive) | 56.8 µM (inactive) | 32 µM (inactive) | 35.5 µM (inactive) | 44.2 µM (inactive) | 32.4 µM (inactive) | 42 µM (inactive) | 23.1 µM (inactive) | 32.2 µM (inactive) |
| O=C1CN2CCN(CC2)CC(=O)Nc2ccc(cc2)S(=O)(=O)c2ccc(cc2)NC(=O)CN2CCN(CC2)CC(=O)Nc2ccc(cc2)S(=O)(=O)c2ccc(cc2)N1 | > 100 µM (inactive) | 18.1 µM (inactive) | > 100 µM (inactive) | > 100 µM (inactive) | 13.4 | > 97.5 µM (inactive) | 64.7 µM (inactive) | > 100 µM (inactive) | > 47.8 µM (inactive) | > 100 µM (inactive) | 11 µM (inactive) | 6.81 µM (inactive) | 38.8 µM (inactive) | 31.5 µM (inactive) | 10.1 µM (inactive) | 35.2 µM (inactive) | 0.557 µM (active) | 41.8 µM (inactive) | 55.2 µM (inactive) | 16.1 µM (inactive) |
| CCN(CC)CCNc1ccc(C)c2sc3ccccc3c(=O)c12 [LUCANTHONE HYDROCHLORIDE] | 2.23 µM (inactive) | 2.39 µM (inactive) | 4.66 µM (inactive) | 2.03 µM (inactive) | 2.75 | 2.67 µM (inactive) | 5.04 µM (inactive) | 2.54 µM (inactive) | 2.85 µM (inactive) | 2.06 µM (inactive) | 1.49 µM (inactive) | 1.27 µM (inactive) | 3.4 µM (inactive) | 4.36 µM (inactive) | 1.9 µM (inactive) | 2.04 µM (inactive) | 1.79 µM (inactive) | 1.95 µM (inactive) | 1.98 µM (inactive) | 2.85 µM (inactive) |
| COc1cc2c(cc1OCCCC(=O)Nc1cc(C(=O)Nc3cc(C(=O)Nc4cc(C(=O)NCCCN(C)C)n(C)c4)n(C)c3)n(C)c1)N=C[C@@H]1CCCN1C2=O | 13.2 µM (inactive) | 2.16 µM (inactive) | 1.95 µM (inactive) | 2.28 µM (inactive) | 1.82 | 1.2 µM (inactive) | 5.56 µM (inactive) | 6.32 µM (inactive) | 0.587 µM (active) | 3.3 µM (inactive) | 0.933 µM (active) | 3.2 µM (inactive) | 1.79 µM (inactive) | 1.96 µM (inactive) | 1.67 µM (inactive) | 1.79 µM (inactive) | 1.16 µM (inactive) | 1.84 µM (inactive) | 1.66 µM (inactive) | 2.3 µM (inactive) |
| C=C1C(=O)[C@]23[C@H](O)[C@H]1CC[C@H]2[C@@]12CO[C@@]3(O)C[C@@H]1C(C)(C)CC[C@@H]2O [MEGATHYRIN A] | 7.45 µM (inactive) | 6.18 µM (inactive) | > 25 µM (inactive) | 9.2 µM (inactive) | 6.95 | 7.85 µM (inactive) | 8.22 µM (inactive) | 21.2 µM (inactive) | 8.47 µM (inactive) | 4.91 µM (inactive) | 4.25 µM (inactive) | 7.11 µM (inactive) | 8.57 µM (inactive) | 4.37 µM (inactive) | 7.4 µM (inactive) | 4.12 µM (inactive) | 8.45 µM (inactive) | 7.69 µM (inactive) | 4.03 µM (inactive) | 5.66 µM (inactive) |
